One assay concerns the target T1, FSHR (Homo sapiens, UniProt P23945).
T1 construct: expressed in transfected cells; host or cells: CHO (Cho-FSHR-LUC-1-1-43)
T1 sequence (P23945 18-695): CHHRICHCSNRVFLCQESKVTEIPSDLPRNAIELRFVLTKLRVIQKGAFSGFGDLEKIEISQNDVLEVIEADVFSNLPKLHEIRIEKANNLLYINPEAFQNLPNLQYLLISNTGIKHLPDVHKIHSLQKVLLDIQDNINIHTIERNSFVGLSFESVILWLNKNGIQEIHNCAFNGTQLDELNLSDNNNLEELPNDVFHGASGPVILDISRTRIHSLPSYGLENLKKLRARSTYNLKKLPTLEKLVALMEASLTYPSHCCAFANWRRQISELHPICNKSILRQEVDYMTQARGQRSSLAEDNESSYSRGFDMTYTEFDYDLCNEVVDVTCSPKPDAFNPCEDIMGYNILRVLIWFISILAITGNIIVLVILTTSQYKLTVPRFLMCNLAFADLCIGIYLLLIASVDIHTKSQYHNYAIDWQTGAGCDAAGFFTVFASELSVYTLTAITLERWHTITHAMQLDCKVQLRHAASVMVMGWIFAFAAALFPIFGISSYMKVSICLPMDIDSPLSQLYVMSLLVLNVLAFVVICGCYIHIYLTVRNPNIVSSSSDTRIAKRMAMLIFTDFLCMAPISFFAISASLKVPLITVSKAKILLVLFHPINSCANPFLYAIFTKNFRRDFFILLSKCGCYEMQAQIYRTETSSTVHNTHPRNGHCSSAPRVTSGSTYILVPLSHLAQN
The assay is described as follows: EC50 of cyclic AMP production in CHO FSHR cells + EC20 FSH (Assay A). It counts as cell-based. Conditions: cyclic AMP production in CHO FSHR cells + EC20 FSH (0.265 pM), HTRF. A digest of the protocol: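 cAMP was detected by HTRF as the 665/620 nm ratio. The CHO-FSHR cells had first been exposed for 1 h at 37° C to test compound together with 0.265 pM FSH (EC20) and 200 μM IBMX. Responses are given as percent of the FSH standard maximum.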

Assay [1] deals with T2, follicle-stimulating hormone (FSH) receptor (Rattus norvegicus, UniProt P20395).
T2 construct: endogenous in cells; host or cells: rat granulosa cells
T2 sequence (P20395 18-692): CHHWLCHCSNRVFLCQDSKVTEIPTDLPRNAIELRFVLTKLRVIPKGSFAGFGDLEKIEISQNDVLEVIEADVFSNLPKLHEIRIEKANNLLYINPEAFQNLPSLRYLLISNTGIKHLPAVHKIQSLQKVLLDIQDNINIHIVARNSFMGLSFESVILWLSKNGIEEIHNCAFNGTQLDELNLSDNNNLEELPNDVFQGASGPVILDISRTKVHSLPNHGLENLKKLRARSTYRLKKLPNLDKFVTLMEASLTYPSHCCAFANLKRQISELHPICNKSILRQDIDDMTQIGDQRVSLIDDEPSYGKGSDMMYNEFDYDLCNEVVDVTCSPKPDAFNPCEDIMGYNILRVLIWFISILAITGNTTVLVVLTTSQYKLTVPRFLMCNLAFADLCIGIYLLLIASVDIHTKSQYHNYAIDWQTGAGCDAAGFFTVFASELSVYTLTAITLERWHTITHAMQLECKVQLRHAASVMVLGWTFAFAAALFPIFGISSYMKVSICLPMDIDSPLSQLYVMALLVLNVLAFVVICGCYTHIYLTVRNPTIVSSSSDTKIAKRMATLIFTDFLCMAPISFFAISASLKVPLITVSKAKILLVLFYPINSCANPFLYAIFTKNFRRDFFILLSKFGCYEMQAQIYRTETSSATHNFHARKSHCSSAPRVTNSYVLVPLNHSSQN
Kind of assay: Rat granulosa EC50 FSH (Assay B). It counts as cell-based. On the procedure: Example 25. Rat granulosa EC50 FSH (Assay B)
The assay was performed pursuant to the teaching of Yanofsky et al. (2006) Allosteric activation of the follicle-stimulating hormone (FSH) receptor by selective, nonpeptide agonists (JBC 281(19): 13226-13233, which is incorporated by reference in the disclosure of the invention).

A value given as a limit tells only on which side of the number the result lay.

On to `COc1cc2c(cc1-c1ccn(C)n1)-c1c(c(C(=O)N3C[C@H](O)[C@H](O)CC3(C)C)nn1-c1ccsc1)CO2` [Compound 130, ((4R,5S)-4,5-dihydroxy-2,2-dimethylpiperidin-1-yl)(7-methoxy-8-(1-methyl-1H-pyrazol-3-yl)-1-(thiophen-3-yl)-1,4-dihydrochromeno[4,3-c]pyrazol-3-yl)methanone], for which the EC50 (as a rule, the concentration needed to bring the measured effect to its halfway point) on FSHR was 10 to 100 nM; in assay [1], 101 to 500 nM.
Turning to `COc1cc2c(cc1-c1ccn(C)n1)-c1c(c(C(=O)N3CCC(O)CC3(C)C)nn1-c1ccsc1)CO2` (stereo not shown) [Compound 57, (4-hydroxy-2,2-dimethylpiperidin-1-yl)(7-methoxy-8-(1-methyl-1H-pyrazol-3-yl)-1-(thiophen-3-yl)-1,4-dihydrochromeno[4,3-c]pyrazol-3-yl)methanone], the EC50 at FSHR lay within 10 to 100 nM; in assay [1] it was 101 to 500 nM.
On the same counts, the results for `COc1cc2c(cc1-c1cncc(C#N)c1)-c1c(c(C(=O)N3CCOCC3(C)C)nn1-c1cc(Cl)cc(Cl)c1)CO2` [Compound 12, 5-(1-(3,5-dichlorophenyl)-3-(3,3-dimethylmorpholine-4-carbonyl)-7-methoxy-1,4-dihydrochromeno[4,3-c]pyrazol-8-yl)nicotinonitrile] are less than 10 nM and 10 to 100 nM.
Consider `COc1cc2c(cc1-c1ccn(C)n1)-c1c(c(C(=O)N(CCO)C(C)(C)C)nn1-c1ccsc1)CO2` [Compound 121, N-tert-butyl-N-(2-hydroxyethyl)-7-methoxy-8-(1-methyl-1H-pyrazol-3-yl)-1-(thiophen-3-yl)-1,4-dihydrochromeno[4,3-c]pyrazole-3-carboxamide], for which the EC50 is 10 to 100 nM at FSHR and more than 500 nM in assay [1].
Turning to `COc1cc2c(cc1-c1cc(F)cc(C(=O)O)c1)-c1c(c(C(=O)N(C)C(C)(C)C)nn1-c1cc(Cl)cc(Cl)c1)CO2` [Compound 83, 3-(3-(tert-butyl(methyl)carbamoyl)-1-(3,5-dichlorophenyl)-7-methoxy-1,4-dihydrochromeno[4,3-c]pyrazol-8-yl)-5-fluorobenzoic acid], the values for the EC50 (on FSHR; in assay [1]) were less than 10 nM and 101 to 500 nM, respectively.
On the same counts, the results for `COc1cc2c(cc1-c1cnn(CC(N)=O)c1)-c1c(c(C(=O)N3CCOCC3(C)C)nn1-c1cc(F)cc(Cl)c1)CO2` [Compound 69, 2-(4-(1-(3-chloro-5-fluorophenyl)-3-(3,3-dimethylmorpholine-4-carbonyl)-7-methoxy-1,4-dihydrochromeno[4,3-c]pyrazol-8-yl)-1H-pyrazol-1-yl)acetamide] are less than 10 nM and 10 to 100 nM.
The matching figures for `COc1cc2c(cc1-c1cncc(C(N)=O)c1)-c1c(c(C(=O)N(C)C(C)(C)C)nn1-c1cc(C)cc(F)c1)CO2` [Compound 173]: less than 10 nM and 10 to 100 nM.
The matching figures for `COc1cc2c(cc1-c1cc(C(N)=O)ncc1F)-c1c(c(C(=O)N(C)C(C)(C)C)nn1-c1cc(Cl)cc(Cl)c1)CO2` [Compound 68, N-tert-butyl-8-(2-carbamoyl-5-fluoropyridin-4-yl)-1-(3,5-dichlorophenyl)-7-methoxy-N-methyl-1,4-dihydrochromeno[4,3-c]pyrazole-3-carboxamide]: less than 10 nM and 101 to 500 nM.

The values above are taken from patent US10941152B2, “Pyrazole compounds as modulators of FSHR and uses thereof” (TOCOPHERX, INC., priority 2014, dated 2021).
